Key:
[1] = target: T1, pre-fibrillized Amylin/IAPP fibrils (Homo sapiens, UniProt P10997); assay: Thioflavin T fluorometry, disruption/disassembly of pre-formed Amylin/IAPP fibrils; format: biochemical; settings: for % Inhibition Amylin/IAPP (result ± S.D.), Thioflavin T fluorometry: 3-day incubation at 37° C.; for disruption/disassembly of preformed Amylin/IAPP fibrils (result in words), Thioflavin T fluorometry: all concentrations tested (wt/wt ratios 1:1 to 1:0.001)
T1 construct: purchased Bachem Inc
T1 sequence (P10997 34-70 limits assumed): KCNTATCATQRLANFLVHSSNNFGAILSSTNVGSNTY
Description: The biological activity of the compounds provided herein as disruptors/inhibitors of IAPP amyloid protein fibrils, was assessed by determining the efficacy of the compounds to cause a disassembly/disruption of pre-formed IAPP amyloid fibrils. […] In this assay Thioflavin T binds specifically to fibrillar amyloid, and this binding produces a fluorescence enhancement at 485 nm that is directly proportional to the amount of fibrils present. The higher the fluorescence, the greater the amount of fibrils present (Naki et al, Lab. Invest. 65:104-110, 1991; Levine III, Protein Sci. 2:404-410, 1993; Amyloid: Int. J. Exp. Clin. Invest. 2:1-6, 1995).
In this assay Thioflavin T binds specifically to fibrillar amyloid, and this binding produces a fluorescence enhancement at 485 nm that is directly proportional to the amount of amyloid fibrils formed. The higher the fluorescence, the greater the amount of amyloid fibrils formed (Naki et al., Lab. Invest. 65:104-110, 1991; Levine III, Protein Sci. 2:404-410, 1993; Amyloid: Int. J. Exp. Clin. Invest. 2:1-6, 1995). The same premise is applied to Amylin/IAPP fibrils.
Following 3-days of co-incubation, 50 μl of each incubation mixture was transferred into a 96-well microtiter plate containing 150 μl of distilled water and 50 μl of a Thioflavin T solution (i.e. 500 mM Thioflavin T in 250 mM phosphate buffer, pH 6.8). The fluorescence was read at 485 nm (444 nm excitation wavelength) using an ELISA plate fluorometer after subtraction with buffer alone or compound alone, as blank.

Amylin/IAPP fibrils = target: T2, Amylin/IAPP fibrils (Homo sapiens, UniProt P10997); assay: Congo red binding assay, Amylin/IAPP fibrils; format: biochemical; settings: 3-day incubation
T2 sequence (P10997 34-70 limits assumed): T1 sequence (P10997 34-70 limits assumed)
Description: In the Congo red binding assay the ability of a given test compound to alter amyloid binding to Congo red was quantified. In this assay, IAPP fibrils and test compounds were incubated for 3 days and then vacuum filtered through a 0.2 μm filter. The amount of IAPP fibrils retained in the filter was then quantitated following staining of the filter with Congo red. After appropriate washing of the filter, any lowering of the Congo red color on the filter in the presence of the test compound (compared to the Congo red staining of the amyloid protein in the absence of the test compound) was indicative of the test compound's ability to diminish/alter the amount of aggregated and congophilic IAPP fibrils.
In the Congo red binding assay the ability of a test compound to alter Amylin/IAPP binding to Congo red is quantified. In this assay, Amylin/IAPP and test compounds were incubated for 3 days and then vacuum filtered through a 0.2 μm filter. The amount of Amylin/IAPP retained in the filter was then quantitated following staining of the filter with Congo red. After appropriate washing of the filter, any lowering of the Congo red color retained on the filter in the presence of the test compound (compared to the Congo red staining of the Amylin/IAPP protein in the absence of the test compound) was indicative of the test compound's ability to diminish/alter the amount of aggregated and/or congophilic Amylin/IAPP.

[2] = Amylin/IAPP:test compound wt/wt ratio 1:0.001
[3] = Amylin/IAPP:test compound wt/wt ratio 1:0.01
[4] = Amylin/IAPP:test compound wt/wt ratio 1:0.1
[5] = Amylin/IAPP:test compound wt/wt ratio 1:1

| Compound | % Inhibition Amylin/IAPP (result ± S.D.), Thioflavin T fluorometry [1, 2] [%] | % Inhibition Amylin/IAPP (result ± S.D.), Thioflavin T fluorometry [1, 3] [%] | % Inhibition Amylin/IAPP (result ± S.D.), Thioflavin T fluorometry [1, 4] [%] | % Inhibition Amylin/IAPP (result ± S.D.), Thioflavin T fluorometry [1, 5] [%] | disruption/disassembly of preformed Amylin/IAPP fibrils (result in words), Thioflavin T fluorometry [1] | % Inhibition Amylin/IAPP (result ± S.D.), Congo red binding (Amylin/IAPP fibrils; [2]) [%] | % Inhibition Amylin/IAPP (result ± S.D.), Congo red binding (Amylin/IAPP fibrils; [3]) [%] | % Inhibition Amylin/IAPP (result ± S.D.), Congo red binding (Amylin/IAPP fibrils; [4]) [%] | % Inhibition Amylin/IAPP (result ± S.D.), Congo red binding (Amylin/IAPP fibrils; [5]) [%] |
| --- | --- | --- | --- | --- | --- | --- | --- | --- | --- |
| O=C(Nc1ccc(O)c(O)c1)c1cccc(O)c1O [Compound 1, 2,3 dihydroxybenzoic Acid 3,4 Dihydroxyanilide] | 14.3 ± 3.56 | 60.9±0.61 | 95.1±0.48 | 98.5 ± 0.26 | most efficacious | 0.0 ± 6.44 | 7.8 ± 6.13 | 35.7 ± 5.12 | 58.1 ± 6.67 |
| O=C(Nc1cccc(O)c1O)c1ccc(O)c(O)c1 [Compound 2, 3,4 dihydroxybenzoic Acid 2,3 Dihydroxyanilide] | 5.1 ± 4.57 | 52.9 ± 4.36 | 92.6 ± 0.84 | 99.4 ± 1.69 |  | 5.3 ± 6.75 | 5.2 ± 0.23 | 33.5 ± 6.38 | 45.8 ± 1.62 |
| O=C(Nc1cccc(O)c1O)c1cccc(O)c1O [Compound 3, 2,3 dihydroxybenzoic Acid 2,3 Dihydroxyanilide] | 5.0 ± 6.78 | 51.7±3.56 | 94.5±0.91 | 99.3 ± 0.6 | most efficacious | 7.1 ± 4.14 | 3.6 ± 1.16 | 26.0 ± 5.79 | 60.1 ± 3.78 |
| CN(C(=O)c1ccc(O)c(O)c1)c1ccc(O)c(O)c1 [Compound 4, 3,4 Dihydroxybenzoic Acid 3,4 Dihydroxy N-methyl Anilide] | 9.8 ± 7.47 | 57.4±1.61 | 95.4±0.23 | 100.0 ± 0.09 | most efficacious | 0.0 ± 7.35 | 8.0 ± 4.62 | 46.0±7.43 | 70.8±1.55 |
| O=S(=O)(Nc1ccc(O)c(O)c1)c1ccc(O)c(O)c1 [Compound 5, 3,4 Dihydroxybenzenesulfonic acid 3,4 Dihydroxysulfonamide] | 14.1 ± 1.62 | 56.7±0.4 | 93.7±1.13 | 99.7 ± 0.38 | most efficacious | 3.5 ± 2.40 | 8.3 ± 6.91 | 43.4 ± 3.39 | 54.6 ± 14.22 |
| Oc1ccc(-c2cnc(-c3ccc(O)c(O)c3)[nH]2)cc1O [Compound 6, 2,4 bis(3,4 dihydroxyphenyl) Imidazole] | 17.2 ± 4.22 | 68.9±3.33 | 96.3±0.76 | 100.0 ± 0.26 | most efficacious | 5.2 ± 2.31 | 1.0 ± 4.82 | 36.4 ± 12.77 | 80.7 ± 0.75 |

Results, then the molecule that gave them:

| % Inhibition Amylin/IAPP (result ± S.D.), Thioflavin T fluorometry [1, 2] [%] | % Inhibition Amylin/IAPP (result ± S.D.), Thioflavin T fluorometry [1, 3] [%] | % Inhibition Amylin/IAPP (result ± S.D.), Thioflavin T fluorometry [1, 4] [%] | % Inhibition Amylin/IAPP (result ± S.D.), Thioflavin T fluorometry [1, 5] [%] | disruption/disassembly of preformed Amylin/IAPP fibrils (result in words), Thioflavin T fluorometry [1] | % Inhibition Amylin/IAPP (result ± S.D.), Congo red binding (Amylin/IAPP fibrils; [2]) [%] | % Inhibition Amylin/IAPP (result ± S.D.), Congo red binding (Amylin/IAPP fibrils; [3]) [%] | % Inhibition Amylin/IAPP (result ± S.D.), Congo red binding (Amylin/IAPP fibrils; [4]) [%] | % Inhibition Amylin/IAPP (result ± S.D.), Congo red binding (Amylin/IAPP fibrils; [5]) [%] | Compound |
| --- | --- | --- | --- | --- | --- | --- | --- | --- | --- |
| 4.6 ± 4.34 | 41.4 ± 2.13 | 89.7 ± 0.54 | 99.8 ± 0.31 |  | 9.1 ± 1.29 |  | 44.1 ± 5.62 | 66.2±7.81 | Oc1ccc(-c2nnc(-c3ccc(O)c(O)c3)[nH]2)cc1O [Compound 7, 3,5 bis(3,4 Dihydroxyphenyl) 1,2,4 Triazole] |
| 8.1 ± 1.54 | 48.4 ± 0.31 | 91.2 ± 0.76 | 99.0 ± 1.05 |  | 1.7 ± 1.98 | 20.2 ± 7.11 | 39.7 ± 7.20 | 74.9 ± 1.26 | Oc1ccc(-c2cc(-c3ccc(O)c(O)c3)[nH]n2)cc1O [Compound 8, 3,5 bis(3,4 Dihydroxyphenyl)Pyrazole] |
| 4.3 ± 2.29 | 36.6 ± 3.55 | 88.5 ± 0.31 | 97.6 ± 0.31 |  | 16.5 ± 9.88 | 12.0 ± 8.03 | 41.2 ± 5.64 | 88.6 ± 2.08 | Oc1ccc(C23CC4CC(C2)CC(c2ccc(O)c(O)c2)(C4)C3)cc1O [Compound 9, 1,3 bis(3,4 dihydroxyphenyl) Adamantane] |

From patent US20090227647A1, “Compounds, Compositions and Methods for the Treatment of Islet Amyloid Polypeptide (IAPP) Accumulation in Diabetes” (priority 2008, published 2009)
